Ten molecules from article PMC4998004, “aPKC Inhibition by Par3 CR3 Flanking Regions Controls Substrate Access and Underpins Apical-Junctional Polarization” (Developmental Cell, 2016) can be followed below.

Positions count from the first letter of the chain named. Non-standard residues stand in square brackets, D forms with d. Residues, ends and D or L forms follow the SMILES beside them. No end group written: not given here. pS = N[C@@H](COP(=O)(O)O)C(=O)O

The target of assay [1] is T1, PKCιKD-2P (primed human PKC-iota kinase domain) (Homo sapiens, UniProt P41743, C595S).
T1 construct: encoding residues 248–596 (GenBank: NM_002740.5); GST (followed by a 3C protease site) (N, cleaved yes); made in house; host or cells: Hi5 insect cells, baculovirus, co-infected with a PDK-1 virus
T1 sequence (P41743 248-596 C595S): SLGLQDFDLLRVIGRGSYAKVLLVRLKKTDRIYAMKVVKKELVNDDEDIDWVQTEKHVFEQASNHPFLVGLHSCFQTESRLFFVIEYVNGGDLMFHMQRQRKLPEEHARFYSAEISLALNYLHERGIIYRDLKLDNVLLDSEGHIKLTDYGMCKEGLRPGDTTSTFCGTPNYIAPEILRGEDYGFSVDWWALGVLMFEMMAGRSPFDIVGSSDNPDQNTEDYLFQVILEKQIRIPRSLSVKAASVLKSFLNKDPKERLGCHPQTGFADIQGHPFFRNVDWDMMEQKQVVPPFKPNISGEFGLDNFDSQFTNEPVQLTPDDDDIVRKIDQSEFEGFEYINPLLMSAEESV
Briefly: Fluorescence anisotropy binding assay with fluorescein-labelled peptides. The conditions noted are these: for Kd: Figure S4D, fluorescein-labelled εPSS peptides. As for the experimental part:
The ADP Quest kit (DiscoveRx) was used to determine the kcat app and KM app values for ATP against the PKCιKD-1P and PKCιKD-2P using a series of synthetic peptide substrates as described by [Kjaer et al. (2013)]. The reactions were measured every 2 min for 30 min in a 384-well plate using a Safire^2 plate reader (Tecan). The kinetic constants were determined by fitting the data to the Michaelis-Menten equation. Data are represented as mean ± SEM. Fluorescence anisotropy assays were performed to determine the KD for each peptide labeled with a fluorescein tag following standard protocols using a Safire^2 plate reader (Tecan). The anisotropy values were normalized and the KD was determined using non-linear regression. All experiments were performed in triplicate and for at least three independent protein preparations. […]
Several synthetic peptide substrates were used including a model peptide […]
(§1) ([…]) derived from a PKCε pseudo-substrate sequence with an alanine-serine change. We found this peptide to be an efficient substrate peptide for aPKC isozymes. Peptides from human Par3CR3 (residues 816-835) and F-X-R short […]
peptide ([…]) related to the Nishikawa and co-workers consensus were also used in the study (Nishikawa et al., 1997). […]
The kinetic constants were determined by fitting the data to […]
Fluorescence anisotropy binding assays
Fluorescence anisotropy assays were performed to determine the Kd for each peptide following a previously described protocol (Guettler et al., 2008). Binding assays were performed in 20 mM Tris pH 7.5, 50 mM NaCl, 5% glycerol and 0.5 mM TCEP. The reaction mixtures contained fluorescein labelled peptides at a constant 50 nM concentration, while the protein concentration ranged from 0-200 µM. The 20 µl reactions were carried out in 384-well plate and measured after 30 minutes on the Safire2 plate reader (Tecan) with the excitation at 470 nm and emission at 525 nm. […]

In assay [2] the target is T1, PKCιKD-2P (primed human PKC-iota kinase domain). Briefly: In vitro kinase assay (ADP Quest), peptide as substrate, Michaelis-Menten kinetics. Type of assay: biochemical. The conditions noted are these: for increase of apparent kcat relative to wild-type Par3CR3: phosphorylation by PKCιKD-2P, Figures 5A and 5C. As for the experimental part:
The ADP Quest kit (DiscoveRx) was used to determine the kcat app and KM app values for ATP against the PKCιKD-1P and PKCιKD-2P using a series of synthetic peptide substrates as described by [Kjaer et al. (2013)]. The reactions were measured every 2 min for 30 min in a 384-well plate using a Safire^2 plate reader (Tecan). The kinetic constants were determined by fitting the data to the Michaelis-Menten equation. Data are represented as mean ± SEM. Fluorescence anisotropy assays were performed to determine the KD for each peptide labeled with a fluorescein tag following standard protocols using a Safire^2 plate reader (Tecan). The anisotropy values were normalized and the KD was determined using non-linear regression. All experiments were performed in triplicate and for at least three independent protein preparations.
The ADP Quest kit (DiscoveRx) was used to determine the kcat app and Km app values for ATP against the PKCι KD-1P and PKCι KD-2P. The assay uses a coupled reaction to convert ADP to a product that has a fluorescence excitation at 530 nm and emission at 590 nm. Several synthetic peptide substrates were used including a model peptide […]
as §1
peptide ([…]) related to the Nishikawa and co-workers consensus were also used in the study (Nishikawa et al., 1997). For the kcat app and Km app reactions, the ATP concentration ranged from 0-200 µM, while the synthetic peptide substrates were kept constant at 200 µM to avoid product inhibition. The reactions were measured every two minutes for 30 minutes in a 384-well plate using a Safire 2 plate reader (Tecan). The kinetic constants were determined by fitting the data to Michaelis–Menten equation using the graphics program Prism (GraphPad Prism, version 5.0d, GraphPad Software). […]

Assay [3] concerns the target T2, human PKC-iota kinase domain, primed active form (PKCιKD-2P) (human, UniProt P41743 248-596, phosphothreonine at 412 and 564 (pT412, pT564)).
T2 chain: T1 sequence (P41743 248-596 C595S) with S348C
Briefly: FP.

Assay [4] concerns the target T3, human PKC-iota kinase domain, primed active form (PKCιKD-2P) (human, UniProt P41743 248-596, phosphothreonine at 412 and 564 (pT412, pT564)).
T3 sequence (looked up): T1 sequence (P41743 248-596 C595S) with S348C
Briefly: cell-based or functional assay.

In assay [1], `CSCC[C@H](NC(=O)[C@H](CCCNC(=N)N)NC(=O)[C@@H](N)CCC(=O)O)C(=O)N[C@@H](CCCNC(=N)N)C(=O)N1CCC[C@H]1C(=O)N[C@@H](CCCNC(=N)N)C(=O)N[C@@H](CCCCN)C(=O)N[C@@H](CCCNC(=N)N)C(=O)N[C@@H](CCC(N)=O)C(=O)NCC(=O)N[C@@H](CO)C(=O)N[C@H](C(=O)N[C@@H](CCCNC(=N)N)C(=O)N[C@@H](CCCNC(=N)N)C(=O)N[C@@H](CCCNC(=N)N)C(=O)N[C@H](C(=O)N[C@@H](Cc1c[nH]cn1)C(=O)N[C@@H](CCC(N)=O)C(=O)N[C@H](C(=O)N[C@@H](CC(N)=O)C(=O)O)C(C)C)C(C)C)C(C)C` [εpss, reference compound] (H-ERMRPRKRQGSVRRRVHQVN-OH) registered a dissociation constant Kd of 13.3 ± 2.1 µM.
On to `CSCC[C@H](NC(=O)[C@H](CO)NC(=O)[C@H](CCC(N)=O)NC(=O)[C@H](CCCNC(=N)N)NC(=O)CNC(=O)[C@H](Cc1ccccc1)NC(=O)CNC(=O)[C@H](CCC(=O)O)NC(=O)[C@H](CCCNC(=N)N)NC(=O)[C@H](CCC(N)=O)NC(=O)[C@H](Cc1ccccc1)NC(=O)[C@H](C)NC(=O)[C@@H](N)CC(C)C)C(=O)N[C@@H](CO)C(=O)N[C@@H](CCC(=O)O)C(=O)N[C@@H](C)C(=O)N[C@@H](C)C(=O)N[C@H](C(=O)N[C@@H](CCCCN)C(=O)N[C@@H](CCC(N)=O)C(=O)O)[C@@H](C)O` [Par-3CR3AAT] (H-LAFQREGFGRQSMSEAATKQ-OH; N-terminus and C-terminus assumed), for which, in assay [2], the “increase of apparent kcat relative to wild-type Par3CR3” value is 18 fold.
The molecule `CSCC[C@H](NC(=O)[C@H](CCCNC(=N)N)NC(=O)[C@@H](N)CCC(=O)O)C(=O)N[C@@H](CCCNC(=N)N)C(=O)N1CCC[C@H]1C(=O)N[C@@H](Cc1ccccc1)C(=O)N[C@@H](CCCCN)C(=O)N[C@@H](CCCNC(=N)N)C(=O)N[C@@H](CCC(N)=O)C(=O)NCC(=O)N[C@@H](CO)C(=O)N[C@H](C(=O)N[C@@H](CCCNC(=N)N)C(=O)N[C@@H](CCCNC(=N)N)C(=O)N[C@@H](CCCNC(=N)N)C(=O)N[C@H](C(=O)N[C@@H](Cc1c[nH]cn1)C(=O)N[C@@H](CCC(N)=O)C(=O)N[C@H](C(=O)N[C@@H](CC(N)=O)C(=O)O)C(C)C)C(C)C)C(C)C` [ε -5Fpss] (H-ERMRPFKRQGSVRRRVHQVN-OH) displayed a dissociation constant (Kd) in assay [1] of 1.8 ± 0.1 µM.
In the case of `CSCC[C@H](NC(=O)[C@H](CO)NC(=O)[C@H](CCC(N)=O)NC(=O)[C@H](CCCNC(=N)N)NC(=O)CNC(=O)[C@H](Cc1ccccc1)NC(=O)CNC(=O)[C@H](CCC(=O)O)NC(=O)[C@H](C)NC(=O)[C@H](CCC(N)=O)NC(=O)[C@H](C)NC(=O)[C@H](C)NC(=O)[C@@H](N)CC(C)C)C(=O)N[C@@H](CO)C(=O)N[C@@H](CCC(=O)O)C(=O)N[C@@H](CCCCN)C(=O)N[C@@H](CCCNC(=N)N)C(=O)N[C@H](C(=O)N[C@@H](CCCCN)C(=O)N[C@@H](CCC(N)=O)C(=O)O)[C@@H](C)O` [Par-3CR3AXA] (H-LAAQAEGFGRQSMSEKRTKQ-OH; N-terminus and C-terminus assumed), the “increase of apparent kcat relative to wild-type Par3CR3” value in assay [2] came out at 57 fold.
In assay [1], `CSCC[C@H](NC(=O)[C@H](CCCNC(=N)N)NC(=O)[C@@H](N)CCC(=O)O)C(=O)N[C@@H](CCCNC(=N)N)C(=O)N1CCC[C@H]1C(=O)N[C@@H](CCCNC(=N)N)C(=O)N[C@@H](CCCCN)C(=O)N[C@@H](CCCNC(=N)N)C(=O)N[C@@H](CCC(N)=O)C(=O)NCC(=O)N[C@@H](CO)C(=O)N[C@H](C(=O)N[C@@H](CCCNC(=N)N)C(=O)N[C@@H](CCCNC(=N)N)C(=O)N[C@@H](CCCNC(=N)N)C(=O)N[C@@H](Cc1ccccc1)C(=O)N[C@@H](Cc1c[nH]cn1)C(=O)N[C@@H](CCC(N)=O)C(=O)N[C@H](C(=O)N[C@@H](CC(N)=O)C(=O)O)C(C)C)C(C)C` [ε +5Fpss] (H-ERMRPRKRQGSVRRRFHQVN-OH) yielded a Kd of 16.4 ± 3.5 µM.
Consider `CSCC[C@H](NC(=O)[C@H](C)NC(=O)[C@H](CCC(N)=O)NC(=O)[C@H](CCCNC(=N)N)NC(=O)CNC(=O)[C@H](Cc1ccccc1)NC(=O)CNC(=O)[C@H](CCC(=O)O)NC(=O)[C@H](CCCNC(=N)N)NC(=O)[C@H](CCC(N)=O)NC(=O)[C@H](Cc1ccccc1)NC(=O)[C@H](C)NC(=O)[C@@H](N)CC(C)C)C(=O)N[C@@H](CO)C(=O)N[C@@H](CCC(=O)O)C(=O)N[C@@H](CCCCN)C(=O)N[C@@H](CCCNC(=N)N)C(=O)N[C@H](C(=O)N[C@@H](CCCCN)C(=O)N[C@@H](CCC(N)=O)C(=O)O)[C@@H](C)O` [S827A] (H-LAFQREGFGRQAMSEKRTKQ-OH; N-terminus and C-terminus assumed), for which, in assay [2] (Figure 5A, ADP Quest, read every 2 min for 30 min, Michaelis-Menten fit, mean ± SEM), the kcat app turned out to be 0.0167 ± 0.0017 s⁻¹.
Consider “A-X-A + A-A-T: Par3CR3 combining both site 1 and site 3 mutations (LAAQAEGFGRQSMSEAATK)”, for which, in assay [2] (in vitro kinase assay), the “phosphorylation as substrate by PKCι in vitro (in words)” value is reported as “not detectably phosphorylated”. Further, the “interaction with / affinity for PKCιKD-2P (in words)” value in assay [1] is “no measurable interaction”.
Take `CSCC[C@H](NC(=O)[C@H](COP(=O)(O)O)NC(=O)[C@H](CCC(N)=O)NC(=O)[C@H](CCCNC(=N)N)NC(=O)CNC(=O)[C@H](Cc1ccccc1)NC(=O)CNC(=O)[C@H](CCC(=O)O)NC(=O)[C@H](CCCNC(=N)N)NC(=O)[C@H](CCC(N)=O)NC(=O)[C@H](Cc1ccccc1)NC(=O)[C@H](C)NC(=O)[C@@H](N)CC(C)C)C(=O)N[C@@H](CO)C(=O)N[C@@H](CCC(=O)O)C(=O)N[C@@H](CCCCN)C(=O)N[C@@H](CCCNC(=N)N)C(=O)N[C@H](C(=O)N[C@@H](CCCCN)C(=O)N[C@@H](CCC(N)=O)C(=O)O)[C@@H](C)O` [Par-3CR3pS827] (H-LAFQREGFGRQ[pS]MSEKRTKQ-OH; N-terminus and C-terminus assumed): the “interaction with / affinity for PKCιKD-2P (in words)” value in assay [1] was “two orders of magnitude lower”.
Turning to LAAQAEGFGRQSMSEKRTK (also: fluorescein label (position not given here)) [Par3CR3 A-X-A mutant peptide (F-Q-R to A-Q-A, site 1 affinity arm)], binding in assay [3] was put at a Kd of 228 µM. For the same molecule, in assay [4], the “fold increase of the apparent kcat of Par3CR3 phosphorylation by PKCιKD-2P, in vitro kinase assay” value came to 57 fold.
As to LAFQREGFGRQ[pS]MSEKRTK (also: fluorescein label (position not given here)) [phospho-S827 Par3 peptide (PKCι reaction product)], the dissociation constant (Kd) in assay [3] was 115 µM.

By Kd is commonly meant a measure of binding affinity in units of concentration. A high value points to a looser complex.
